The first assay has as its target T1, purified ITK (Invitrogen PV3875) (Homo sapiens, UniProt Q08881).
T1 construct: purchased Invitrogen PV3875
T1 sequence (Q08881 1-620): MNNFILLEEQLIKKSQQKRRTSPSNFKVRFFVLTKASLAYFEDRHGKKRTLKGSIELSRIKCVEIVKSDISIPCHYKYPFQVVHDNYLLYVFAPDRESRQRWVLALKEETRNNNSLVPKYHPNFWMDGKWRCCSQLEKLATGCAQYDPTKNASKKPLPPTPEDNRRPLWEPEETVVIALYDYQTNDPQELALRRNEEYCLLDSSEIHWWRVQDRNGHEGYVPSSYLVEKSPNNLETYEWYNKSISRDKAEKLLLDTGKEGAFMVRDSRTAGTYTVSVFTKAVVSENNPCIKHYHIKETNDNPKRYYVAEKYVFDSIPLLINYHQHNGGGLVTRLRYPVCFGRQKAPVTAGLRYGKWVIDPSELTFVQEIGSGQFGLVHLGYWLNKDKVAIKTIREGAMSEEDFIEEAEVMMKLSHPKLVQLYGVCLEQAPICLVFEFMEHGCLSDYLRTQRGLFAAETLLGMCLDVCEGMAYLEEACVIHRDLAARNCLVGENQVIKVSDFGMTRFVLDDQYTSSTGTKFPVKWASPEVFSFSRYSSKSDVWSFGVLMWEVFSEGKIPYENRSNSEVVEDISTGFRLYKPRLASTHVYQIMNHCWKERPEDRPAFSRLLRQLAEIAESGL
The assay can be described thus: ITK peptide phosphorylation assay (Caliper LabChip or LCMS). To be noted: Table 1, Examples 141-279. It counts as biochemical. As for the experimental part:
The ability of purified ITK (Invitrogen PV3875) to catalyze peptide phosphorylation is monitored using a Caliper LabChip 3000 microfluidic unit (Caliper assay) or by liquid chromatography-mass spectrometry (LCMS) using a Waters Acquity system (LCMS assay). […] Reactions are quenched by the addition of 2,2′,2″,2′″-(ethane-1,2-diyldinitrilo)tetraacetic acid (50 mM final). Non-phosphorylated substrate and phosphorylated product peptides are separated and quantified using a Caliper LabChip 3000 instrument. […] Reactions are quenched by the addition of trichloroacetic acid (5% v/v final). Non-phosphorylated substrate and phosphorylated product peptides are separated by ultra performance LC and detected by a coupled triple quadrupole MS device applying multiple reaction monitoring (MRM) for quantification. The area of the MRM-extracted mass signal is used to assess the inhibition by test compounds. Equilibrium dissociation constant (Ki) values for ITK inhibitors are calculated from plots of activity vs. inhibitor concentration using Morrison's quadratic equation that accounts for the potential of tight binding, and by also applying the conversion factor that accounts for competitive inhibition and the concentration of ATP used in the assay relative to its apparent Michaelis constant (Km,app).
In the case of `CC[C@@H](c1cscn1)n1cc(NC(=O)c2n[nH]c3cc(-c4cn[nH]c4)ccc23)cn1` [Example 175, 6-(1H-pyrazol-4-yl)-N-[1-[(1S)-1-thiazol-4-ylpropyl]pyrazol-4-yl]-1H-indazole-3-carboxamide], affinity was put at a Ki of 0.7 nM. The same measure, in the same setting: the value for `O=C(Nc1cnn(CC2CN(Cc3ccccc3)CCO2)c1)c1n[nH]c2cc(-c3cn[nH]c3)ccc12` (centres unmarked) [Example 259, N-[1-[(4-benzylmorpholin-2-yl)methyl]pyrazol-4-yl]-6-(1H-pyrazol-4-yl)-1H-indazole-3-carboxamide] was 2.76 nM; that for `N#Cc1cccc(Cn2cc(NC(=O)c3n[nH]c4cc(C5CNC5)ccc34)cn2)c1` [Example 182, 6-(azetidin-3-yl)-N-[1-[(3-cyanophenyl)meth-yl]pyrazol-4-yl]-1H-indazole-3-carboxamide] was 240 nM. Compound `N#CCCn1cc(NC(=O)c2n[nH]c3cc(-c4cn[nH]c4)ccc23)cn1` [Example 261, N-[1-(2-cyanoethyl)py-razol-4-yl]-6-(1H-pyrazol-4-yl)-1H-indazole-3-carboxamide] came in with a Ki of 4.81 nM. `O=C(Nc1cnn(Cc2ccccc2)c1)c1n[nH]c2cc(-c3cn[nH]c3)cnc12` [Example 245, N-(1-benzylpyrazol-4-yl)-6-(1H-pyrazol-4-yl)-1H-pyrazolo[4,3-b]pyridine-3-carboxamide] displayed an inhibition constant (Ki) of 18.9 nM. Same read-out and setting: the value for `CN(C)CCC(c1cccc(Cl)c1)n1cc(NC(=O)c2n[nH]c3cc(-c4cn[nH]c4)ccc23)cn1` (centres unmarked) [Example 249, N-[1-[1-(3-chlorophenyl)-3-(dimethylami-no)propyl]pyrazol-4-yl]-6-(1H-pyrazol-4-yl)-1H-indazole-3-carboxamide] was 0.06 nM; that for `O=C(Nc1cnn([C@H](CO)c2cscn2)c1)c1n[nH]c2cc(-c3cn[nH]c3)ccc12` [Example 178, N-[1-[(1S)-2-hydroxy-1-thiazol-4-yl-ethyl]pyrazol-4-yl]-6-(1H-pyrazol-4-yl)-1H-indazole-3-carboxamide] was 6.19 nM; that for `O=C(Nc1cnn(Cc2cncnc2)c1)c1n[nH]c2cc(-c3cn[nH]c3)ccc12` [Example 226, 6-(1H-pyrazol-4-yl)-N-[1-(pyrimidin-5-ylmethyl)pyrazol-4-yl]-1H-indazole-3-carboxamide] was 1.12 nM. In the case of `N#Cc1ccc2c(C(=O)Nc3cnn(Cc4ccccc4)c3)n[nH]c2c1` [Example 206, N-(1-benzylpyrazol-4-yl)-6-cyano-1H-indazole-3-carboxamide], the Ki turned out to be 129 nM. Still for that read-out and setting: the value for `Cn1ccc(-c2ccc3c(C(=O)Nc4cnn(Cc5cccc(C#N)c5)c4)n[nH]c3c2)n1` [Example 203, N-[1-[(3-cyanophenyl)meth-yl]pyrazol-4-yl]-6-(1-methylpyrazol-3-yl)-1H-indazole-3-carboxamide] was 1100 nM. Take `CN(C)CCC(c1ccccc1)n1cc(NC(=O)c2n[nH]c3ccccc23)cn1` (centres unmarked) [Example 267, N-[1-[3-(dimethylamino)-1-phenyl-propyl]pyrazol-4-yl]-1H-indazole-3-carboxamide]: affinity was put at a Ki of 76.9 nM. Still for that read-out and setting: the value for `CN1CCC(Cn2cc(NC(=O)c3n[nH]c4cc(-c5cn[nH]c5)ccc34)cn2)CC1` [Example 258, N-[1-[(1-methyl-4-piperidyl)meth-yl]pyrazol-4-yl]-6-(1H-pyrazol-4-yl)-1H-indazole-3-carboxamide] was 5.68 nM.

Compound `COc1cncc(-c2ccc3c(C(=O)Nc4cnn(C(CN5CCN(C)CC5)c5cccnc5)c4)n[nH]c3c2)c1` (centres unmarked) [Example 234, 6-(5-methoxy-3-pyridyl)-N-[1-[2-(4-methylpiperazin-1-yl)-1-(3-pyridyl)ethyl]py-razol-4-yl]-1H-indazole-3-carboxamide] gave a Ki of 5.38 nM. On to `N#Cc1cccc(Cn2cc(NC(=O)c3n[nH]c4ccc(NC5CCNC5)cc34)cn2)c1` (centres unmarked) [Example 183, N-[1-[(3-cyanophenyl)meth-yl]pyrazol-4-yl]-5-(pyrrolidin-3-ylamino)-1H-indazole-3-carboxamide], for which the Ki amounted to 7.52 nM. Same read-out and setting: the value for `COc1cncc(-c2ccc3c(C(=O)Nc4cnn(CC5CCCCC5)c4)n[nH]c3c2)c1` [Example 222, N-[1-(cyclohexylmeth-yl)pyrazol-4-yl]-6-(5-methoxy-3-pyridyl)-1H-indazole-3-carboxamide] was 75.3 nM. The same measure, in the same setting: the value for `Cn1nc(C(F)(F)F)cc1-c1ccc2c(C(=O)Nc3cnn(Cc4cccc(C#N)c4)c3)n[nH]c2c1` [Example 198, N-[1-[(3-cyanophenyl)meth-yl]pyrazol-4-yl]-6-[2-methyl-5-(trifluorometh-yl)pyrazol-3-yl]-1H-indazole-3-carboxamide] was 183 nM; that for `O=C(Nc1cnn(Cc2ccncc2)c1)c1n[nH]c2cc(-c3cn[nH]c3)ccc12` [Example 218, 6-(1H-pyrazol-4-yl)-N-[1-(4-pyridylmethyl)py-razol-4-yl]-1H-indazole-3-carboxamide] was 3.19 nM.

The assay is the same for the next values; noted with them: Table 2, Examples 1-140, class symbols.
The compound `O=C(Nc1cnn(Cc2ccc(F)cc2F)c1)c1n[nH]c2ccccc12` [Example 71, N-(1-(2,4-difluorobenzyl)-1H-pyrazol-4-yl)-1H-indazole-3-carboxamide] showed a Ki of 1 to 100 nM. For the compound `Cc1ccc2[nH]nc(C(=O)Nc3cnn(Cc4cccc(C#N)c4)c3)c2c1` [Example 2, N-(1-(3-cyanobenzyl)-1H-pyrazol-4-yl)-5-methyl-1H-indazole-3-carboxamide], the Ki lay in the range of 1 to 100 nM. Still for that read-out and setting: the value for `O=C(Nc1cnn(Cc2cccc3cccnc23)c1)c1n[nH]c2cc(-c3cn[nH]c3)ccc12` [Example 9, 6-(1H-Pyrazol-4-yl)-1H-indazole-3-carboxylic acid (1-quinolin-8-ylmethyl-1H-pyrazol-4-yl)-amide] was 1 to 100 nM; that for `CN1CCN(c2cccc(Cn3cc(NC(=O)c4n[nH]c5cc(-c6cn[nH]c6)ccc45)cn3)c2)CC1` [Example 39, N-[1-[[3-(4-methylpiperazin-1-yl)phenyl]methyl]pyrazol-4-yl]-6-(1H-pyrazol-4-yl)-1H-indazole-3-carboxamide] was 0.01 to 1 nM; that for `COc1cncc(-c2ccc3c(C(=O)Nc4cnn(Cc5ccccc5)c4)n[nH]c3c2)c1` [Example 85, N-(1-benzyl-1H-pyrazol-4-yl)-6-(5-methoxypyridin-3-yl)-1H-indazole-3-carboxamide] was 1 to 100 nM.

For `O=C(Nc1cnn(Cc2cccc(-c3ccccn3)c2)c1)c1n[nH]c2cc(-c3cn[nH]c3)ccc12` [Example 38, 6-(1H-Pyrazol-4-yl)-1H-indazole-3-carboxylic acid [1-(3-pyridin-2-yl-benzyl)-1H-pyrazol-4-yl]-amide], the Ki is 1 to 100 nM. Same read-out and setting: the value for `Cc1ccccc1Cn1cc(NC(=O)c2n[nH]c3ccccc23)cn1` [Example 56, N-(1-(2-methylbenzyl)-1H-pyrazol-4-yl)-1H-indazole-3-carboxamide] was 1 to 100 nM; that for `CC(C)(O)CNCc1cccc(Cn2cc(NC(=O)c3n[nH]c4ccccc34)cn2)c1` [Example 90, N-(1-(3-((2-hydroxy-2-methylpropylamino)methyl)benzyl)-1H-pyrazol-4-yl)-1H-indazole-3-carboxamide] was 1 to 100 nM; that for `Cn1cnc(-c2ccc3c(C(=O)Nc4cnn(Cc5ccccc5)c4)n[nH]c3c2)c1` [Example 87, N-(1-benzyl-1H-pyrazol-4-yl)-6-(1-methyl-1H-imidazol-4-yl)-1H-indazole-3-carboxamide] was 1 to 100 nM. `O=C(Nc1cnn(Cc2cc(Cl)cc(Cl)c2)c1)c1n[nH]c2ccccc12` [Example 57, N-(1-(3,5-dichlorobenzyl)-1H-pyrazol-4-yl)-1H-indazole-3-carboxamide] came in with a Ki of 1 to 100 nM.

In the case of `CN(C)CC(c1ccccc1)n1cc(NC(=O)c2n[nH]c3cc(-c4cn[nH]c4)ccc23)cn1` (centres unmarked) [Example 135, N-(1-(2-(dimethylamino)-1-phenylethyl)-1H-pyrazol-4-yl)-6-(1H-pyrazol-4-yl)-1H-indazole-3-carboxamide], the Ki fell in the range of 0.01 to 1 nM. On the same count and under the same terms, the value for `CCNCc1ccc(Cn2cc(NC(=O)c3n[nH]c4ccccc34)cn2)cc1` [Example 110, N-(1-(4-((ethylamino)methyl)benzyl)-1H-pyrazol-4-yl)-1H-indazole-3-carboxamide] was 1 to 100 nM; that for `Cc1ccc(Cn2cc(NC(=O)c3n[nH]c4ccccc34)cn2)cc1` [Example 53, N-(1-(4-methylbenzyl)-1H-pyrazol-4-yl)-1H-indazole-3-carboxamide] was 1 to 100 nM.

Still in this assay, the particulars now being: Table 3, specific values for certain examples.
In turn, `Cc1ccc2[nH]nc(C(=O)Nc3cnn(Cc4cccc(C#N)c4)c3)c2c1` [Example 2, N-(1-(3-cyanobenzyl)-1H-pyrazol-4-yl)-5-methyl-1H-indazole-3-carboxamide] gave a Ki of 16.5 nM.

In turn, `O=C(Nc1cnn(Cc2cccc3cccnc23)c1)c1n[nH]c2cc(-c3cn[nH]c3)ccc12` [Example 9, 6-(1H-Pyrazol-4-yl)-1H-indazole-3-carboxylic acid (1-quinolin-8-ylmethyl-1H-pyrazol-4-yl)-amide] showed a Ki of 7.42 nM.

By Ki is commonly meant a measure of affinity in units of concentration, obtained from inhibition or displacement. Low readings indicate a stronger hold on the target, high ones a looser hold on the target.

The values above are taken from US20140309210A1, “INDAZOLE COMPOUNDS, COMPOSITIONS AND METHODS OF USE THEREOF” (Genentech, Inc., priority 2011, published 2014).
